# In ChEMBL document CHEMBL1201862, “PubChem BioAssay data set” (2004):
# Calls of active or inactive are those of the source.
# How the values were obtained:
# Tumor necrosis factor = Tumor necrosis factor (Homo sapiens, UniProt P01375); test: TNFa-triggered NF-kB activation inhibitors, SAR follow-up, cell-based, revised (AID 2337); type: functional
# [1] = target: T1, Nucleotide-binding oligomerization domain-containing protein 1 (Homo sapiens, UniProt Q9Y239); test: NOD1 signaling inhibitors, SAR follow-up, revised (AID 2333); type: functional
# T1 sequence (Q9Y239 whole entry): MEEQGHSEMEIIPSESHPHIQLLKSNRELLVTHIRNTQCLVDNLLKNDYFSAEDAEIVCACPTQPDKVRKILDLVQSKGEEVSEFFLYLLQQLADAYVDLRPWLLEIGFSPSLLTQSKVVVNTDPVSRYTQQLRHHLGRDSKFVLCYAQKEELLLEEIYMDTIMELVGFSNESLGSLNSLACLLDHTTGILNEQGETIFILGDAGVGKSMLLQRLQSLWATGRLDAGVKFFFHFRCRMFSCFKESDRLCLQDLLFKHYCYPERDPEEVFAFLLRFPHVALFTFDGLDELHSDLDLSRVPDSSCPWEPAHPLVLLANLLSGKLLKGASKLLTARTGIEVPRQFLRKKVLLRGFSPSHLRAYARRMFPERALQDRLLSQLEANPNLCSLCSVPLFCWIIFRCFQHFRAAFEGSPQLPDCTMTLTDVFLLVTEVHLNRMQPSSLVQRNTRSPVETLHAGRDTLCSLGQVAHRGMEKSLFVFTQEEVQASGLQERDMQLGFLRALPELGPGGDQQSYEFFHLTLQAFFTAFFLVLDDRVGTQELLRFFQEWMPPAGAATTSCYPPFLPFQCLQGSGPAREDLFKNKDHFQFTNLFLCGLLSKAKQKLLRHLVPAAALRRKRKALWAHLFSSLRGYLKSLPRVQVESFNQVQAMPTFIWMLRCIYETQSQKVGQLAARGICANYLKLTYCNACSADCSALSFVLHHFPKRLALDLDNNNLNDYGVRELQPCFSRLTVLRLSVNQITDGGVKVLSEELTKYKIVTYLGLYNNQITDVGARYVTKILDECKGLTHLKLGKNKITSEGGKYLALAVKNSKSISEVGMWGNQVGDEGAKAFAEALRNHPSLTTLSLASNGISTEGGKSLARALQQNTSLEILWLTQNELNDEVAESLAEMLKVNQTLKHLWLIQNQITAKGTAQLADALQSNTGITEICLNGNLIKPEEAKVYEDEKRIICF
# HEK293 = test: cells; details: Homo sapiens;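 note: cells exposed to compound for 14 hours overnight before viability readout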
# [2] = target: Nucleotide-binding oligomerization domain-containing protein 2 (Homo sapiens, UniProt Q9HC29); test: PubChem AID 2334; type: functional
# Sequence of Nucleotide-binding oligomerization domain-containing protein 2 (Q9HC29 whole entry, the tested form may be a part): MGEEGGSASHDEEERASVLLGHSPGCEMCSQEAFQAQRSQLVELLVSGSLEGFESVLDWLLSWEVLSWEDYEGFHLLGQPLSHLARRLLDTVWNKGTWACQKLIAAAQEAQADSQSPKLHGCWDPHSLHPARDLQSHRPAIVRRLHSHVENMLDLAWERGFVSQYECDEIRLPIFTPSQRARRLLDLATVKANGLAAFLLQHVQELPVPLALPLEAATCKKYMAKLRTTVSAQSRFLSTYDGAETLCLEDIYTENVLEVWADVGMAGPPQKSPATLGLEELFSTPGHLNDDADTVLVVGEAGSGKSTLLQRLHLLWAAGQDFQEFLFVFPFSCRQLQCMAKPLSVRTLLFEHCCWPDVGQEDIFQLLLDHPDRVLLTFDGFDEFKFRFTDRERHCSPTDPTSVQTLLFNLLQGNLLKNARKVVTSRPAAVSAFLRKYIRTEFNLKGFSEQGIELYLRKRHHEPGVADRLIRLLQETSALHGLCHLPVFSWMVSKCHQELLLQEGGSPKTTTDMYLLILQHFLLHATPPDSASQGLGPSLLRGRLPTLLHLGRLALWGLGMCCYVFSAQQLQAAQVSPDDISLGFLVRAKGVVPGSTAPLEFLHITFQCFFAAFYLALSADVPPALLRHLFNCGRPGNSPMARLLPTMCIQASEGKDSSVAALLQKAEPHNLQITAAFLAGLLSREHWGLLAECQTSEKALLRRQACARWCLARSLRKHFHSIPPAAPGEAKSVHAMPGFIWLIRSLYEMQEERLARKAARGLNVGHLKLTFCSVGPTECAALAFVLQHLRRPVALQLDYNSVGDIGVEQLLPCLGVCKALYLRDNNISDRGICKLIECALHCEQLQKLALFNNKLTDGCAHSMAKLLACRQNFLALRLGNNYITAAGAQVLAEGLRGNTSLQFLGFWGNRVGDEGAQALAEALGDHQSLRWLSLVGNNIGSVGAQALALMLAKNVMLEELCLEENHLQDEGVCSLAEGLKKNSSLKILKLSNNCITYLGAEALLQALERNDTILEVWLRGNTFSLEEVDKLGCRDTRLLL
# Bcl-2-like protein 10 = Bcl-2-like protein 10 (Homo sapiens, UniProt Q9HD36); test: displacers of TR3 peptide from Bcl-B, primary screen, selectivity assay for Bfl-1 inhibitor project, biochemical, fluorescence polarization, FITC-TR3 peptide (AID 748);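 note: fluorescence polarization from a fluorescein-labelled TR3 peptide binding purified Bcl-B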
# Sequence of Bcl-2-like protein 10 (Q9HD36 whole entry): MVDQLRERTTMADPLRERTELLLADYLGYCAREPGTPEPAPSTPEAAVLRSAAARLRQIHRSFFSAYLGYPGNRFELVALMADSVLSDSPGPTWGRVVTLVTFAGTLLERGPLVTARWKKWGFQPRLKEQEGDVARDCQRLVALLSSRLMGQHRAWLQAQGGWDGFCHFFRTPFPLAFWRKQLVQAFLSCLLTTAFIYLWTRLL
# [3] = target: G-protein coupled receptor 35 (Homo sapiens, UniProt Q9HC97); test: GPR35 antagonists blocking zaprinast-driven arrestin recruitment, primary screen, imaging, U2OS, beta-arrestin-GFP, zaprinast agonist (AID 2058); type: functional;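 note: antagonist potency meaning inhibition of agonist-induced arrestin redistribution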
# Sequence of G-protein coupled receptor 35 (Q9HC97 whole entry): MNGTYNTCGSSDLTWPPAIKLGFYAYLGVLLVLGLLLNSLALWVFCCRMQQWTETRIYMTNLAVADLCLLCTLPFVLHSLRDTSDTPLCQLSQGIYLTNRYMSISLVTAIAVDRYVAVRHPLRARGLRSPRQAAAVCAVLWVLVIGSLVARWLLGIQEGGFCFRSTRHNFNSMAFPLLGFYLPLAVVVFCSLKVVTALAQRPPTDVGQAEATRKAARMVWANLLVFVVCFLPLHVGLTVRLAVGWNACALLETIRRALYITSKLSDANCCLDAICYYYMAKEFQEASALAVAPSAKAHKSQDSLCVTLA
# [4] = target: T2, Neuropeptides B/W receptor type 1 (Homo sapiens, UniProt P48145); test: Fluorescence-based dose response cell-based high throughput screening assay to identify antagonists of the G-protein coupled receptor 7 (GPR7). [Related pubchem assays: 1952 (Screening assay (GPR7 antagonists).), 1880 (Summary AID.)]; type: functional
# T2 sequence (P48145 whole entry): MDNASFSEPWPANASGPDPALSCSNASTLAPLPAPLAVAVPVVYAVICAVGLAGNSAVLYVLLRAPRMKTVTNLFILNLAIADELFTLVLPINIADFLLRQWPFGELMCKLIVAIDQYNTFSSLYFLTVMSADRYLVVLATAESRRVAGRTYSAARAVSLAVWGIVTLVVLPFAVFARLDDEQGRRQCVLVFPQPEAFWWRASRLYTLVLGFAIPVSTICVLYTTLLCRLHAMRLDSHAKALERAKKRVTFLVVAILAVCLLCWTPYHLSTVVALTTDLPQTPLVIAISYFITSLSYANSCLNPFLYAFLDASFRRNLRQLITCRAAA
# [5] = target: T3, Melanin-concentrating hormone receptor 1 (Homo sapiens, UniProt Q99705); test: Fluorescence-based counterscreen for antagonists of the G-protein coupled receptor 7 (GPR7): cell-based high throughput dose response assay to identify antagonists of the melanin-concentrating hormone receptor 1 (MCHR1).; type: functional
# T3 sequence (Q99705 whole entry): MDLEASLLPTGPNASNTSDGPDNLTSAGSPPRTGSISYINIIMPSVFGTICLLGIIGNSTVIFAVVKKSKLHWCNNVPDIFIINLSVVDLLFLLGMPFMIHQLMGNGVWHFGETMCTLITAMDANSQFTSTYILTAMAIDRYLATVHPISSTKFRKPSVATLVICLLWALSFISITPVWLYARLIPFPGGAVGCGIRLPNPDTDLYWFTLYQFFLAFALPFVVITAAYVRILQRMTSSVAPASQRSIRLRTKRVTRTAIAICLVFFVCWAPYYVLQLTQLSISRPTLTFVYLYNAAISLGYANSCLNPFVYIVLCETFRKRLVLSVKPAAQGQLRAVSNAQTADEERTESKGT
# X-box-binding protein 1 = X-box-binding protein 1 (Homo sapiens, UniProt P17861); type: functional, Cricetulus griseus;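 note: confirmatory dose-response counter-screen serving a CHOP assay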
# Sequence of X-box-binding protein 1 (P17861 whole entry): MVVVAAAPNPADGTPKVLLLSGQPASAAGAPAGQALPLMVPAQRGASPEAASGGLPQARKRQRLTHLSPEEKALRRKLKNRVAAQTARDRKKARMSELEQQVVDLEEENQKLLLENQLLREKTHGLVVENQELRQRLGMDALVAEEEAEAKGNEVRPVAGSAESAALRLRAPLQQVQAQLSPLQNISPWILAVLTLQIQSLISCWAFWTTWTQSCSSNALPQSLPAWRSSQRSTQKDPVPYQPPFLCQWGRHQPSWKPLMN
# [6] = target: Beta-2 adrenergic receptor (Homo sapiens, UniProt P07550); test: beta2AR agonists driving receptor internalization, dose response, cell-based, FAP fluorogen, flow cytometry, cherry pick 1 (AID 588763); type: functional
# Sequence of Beta-2 adrenergic receptor (P07550 whole entry): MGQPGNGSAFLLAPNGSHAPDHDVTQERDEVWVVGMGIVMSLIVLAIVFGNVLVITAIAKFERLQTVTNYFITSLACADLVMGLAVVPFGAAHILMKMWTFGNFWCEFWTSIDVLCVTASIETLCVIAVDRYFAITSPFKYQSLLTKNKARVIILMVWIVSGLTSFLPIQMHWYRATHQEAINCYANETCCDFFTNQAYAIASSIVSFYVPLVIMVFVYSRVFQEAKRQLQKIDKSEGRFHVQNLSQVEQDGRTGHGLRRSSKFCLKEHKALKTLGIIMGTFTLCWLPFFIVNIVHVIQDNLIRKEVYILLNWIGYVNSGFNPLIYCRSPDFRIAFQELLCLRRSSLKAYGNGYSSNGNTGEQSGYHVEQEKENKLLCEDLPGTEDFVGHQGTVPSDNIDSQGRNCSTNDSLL
# Cytochrome P450 2C19 = Cytochrome P450 2C19 (Homo sapiens, UniProt P33261); test: qHTS Assay for Inhibitors and Substrates of Cytochrome P450 2C19. [Related pubchem assays: 410 ]; type: ADME; details: read-out: Potency
# Sequence of Cytochrome P450 2C19 (P33261 whole entry): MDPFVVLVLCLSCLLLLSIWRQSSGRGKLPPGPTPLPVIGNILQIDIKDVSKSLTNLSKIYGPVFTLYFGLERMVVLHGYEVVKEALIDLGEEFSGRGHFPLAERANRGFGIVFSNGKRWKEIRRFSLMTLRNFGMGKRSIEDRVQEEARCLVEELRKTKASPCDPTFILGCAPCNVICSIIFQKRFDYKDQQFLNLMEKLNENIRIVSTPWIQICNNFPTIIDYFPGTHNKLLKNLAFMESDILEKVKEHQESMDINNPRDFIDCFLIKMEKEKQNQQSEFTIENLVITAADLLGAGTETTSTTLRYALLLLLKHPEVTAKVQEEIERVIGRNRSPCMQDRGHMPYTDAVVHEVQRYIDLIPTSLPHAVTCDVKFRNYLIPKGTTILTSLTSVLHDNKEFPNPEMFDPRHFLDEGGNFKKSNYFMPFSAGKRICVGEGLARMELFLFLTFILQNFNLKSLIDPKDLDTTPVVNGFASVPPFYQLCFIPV
# Cytochrome P450 2C9 = Cytochrome P450 2C9 (Homo sapiens, UniProt P11712); details: Potency
# Sequence of Cytochrome P450 2C9 (P11712 whole entry): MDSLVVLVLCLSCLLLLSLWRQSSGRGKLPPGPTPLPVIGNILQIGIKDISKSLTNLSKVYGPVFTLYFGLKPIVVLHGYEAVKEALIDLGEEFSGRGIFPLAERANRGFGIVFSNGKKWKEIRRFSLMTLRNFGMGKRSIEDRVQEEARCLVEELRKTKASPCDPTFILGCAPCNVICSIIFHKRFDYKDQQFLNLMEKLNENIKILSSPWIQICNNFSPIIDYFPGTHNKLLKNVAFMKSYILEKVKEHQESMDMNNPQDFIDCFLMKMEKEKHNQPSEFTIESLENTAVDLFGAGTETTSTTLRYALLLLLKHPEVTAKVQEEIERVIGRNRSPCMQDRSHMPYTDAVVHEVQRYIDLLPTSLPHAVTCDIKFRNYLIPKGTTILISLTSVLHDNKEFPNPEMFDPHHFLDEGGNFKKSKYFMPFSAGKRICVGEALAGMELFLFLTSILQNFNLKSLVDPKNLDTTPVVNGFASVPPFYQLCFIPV
# [7] = inhibitors of firefly luciferase expression or activity, dose response, H4 neuroglioma cells, luminescence (AID 1990); type: functional, cell-based
# [8] = Luminescence Cell-Based Dose Response HTS to Identify Inhibitors of 5'UTR Stem-Loop Driven Prion Protein mRNA Translation in H4 Neuroglioblastoma Cells. [Related pubchem assays: 1827 (Project Summary), 1813 (Primary HTS)]; type: functional
# [9] = target: Voltage-dependent T-type calcium channel subunit alpha-1H (Homo sapiens, UniProt O95180); type: functional;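 note: channel activity triggered by adding a high calcium stimulation buffer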
# [10] = inhibitors of SNCA 5'UTR-driven reporter translation, confirmation, H4 neuroglioma cells, luminescence (AID 1988); type: functional, cell-based
# [11] = target: T3, Melanin-concentrating hormone receptor 1; test: Late-stage fluorescence-based counterscreen for antagonists of the G-protein coupled receptor 7 (GPR7): cell-based dose response assay to identify antagonists of the melanin-concentrating hormone receptor 1 (MCHR1). [Related pubchem assays (depositor defined):AID1861, AID1880, AID1952, AID2148, AID2251, AID2257, AID485339]; type: functional
# [12] = target: T4, Alkaline phosphatase, tissue-nonspecific isozyme (Homo sapiens, UniProt P05186)
# T4 sequence (P05186 whole entry): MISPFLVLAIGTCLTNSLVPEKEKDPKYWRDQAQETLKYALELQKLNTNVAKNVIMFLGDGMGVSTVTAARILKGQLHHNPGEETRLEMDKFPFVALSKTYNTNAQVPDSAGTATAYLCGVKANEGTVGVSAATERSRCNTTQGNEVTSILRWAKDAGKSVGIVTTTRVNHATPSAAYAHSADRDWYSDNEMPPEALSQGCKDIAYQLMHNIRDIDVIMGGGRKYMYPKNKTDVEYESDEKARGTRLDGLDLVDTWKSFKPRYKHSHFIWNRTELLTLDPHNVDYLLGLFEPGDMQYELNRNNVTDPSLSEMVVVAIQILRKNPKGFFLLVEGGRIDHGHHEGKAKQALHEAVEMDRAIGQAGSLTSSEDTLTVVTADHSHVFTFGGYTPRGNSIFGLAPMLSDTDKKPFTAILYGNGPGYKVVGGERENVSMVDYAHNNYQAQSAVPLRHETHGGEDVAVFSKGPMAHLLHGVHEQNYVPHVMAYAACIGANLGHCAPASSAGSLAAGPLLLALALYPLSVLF
# [13] = cytotoxicity in HPDE-C7 cells, cell-based, fluorescence, HTS (AID 430); type: functional; details: Homo sapiens
# Protein RecA = target: T5, Protein RecA (Mycobacterium tuberculosis, UniProt P9WHJ3); test: Fluorescence Cell-Free Homogeneous Dose Retest to Identify Inhibitors of RecA-Intein Splicing Activity. [Related pubchem assays (depositor defined):AID2097, AID2223, AID489010, AID492950]; type: functional
# T5 sequence (P9WHJ3 whole entry): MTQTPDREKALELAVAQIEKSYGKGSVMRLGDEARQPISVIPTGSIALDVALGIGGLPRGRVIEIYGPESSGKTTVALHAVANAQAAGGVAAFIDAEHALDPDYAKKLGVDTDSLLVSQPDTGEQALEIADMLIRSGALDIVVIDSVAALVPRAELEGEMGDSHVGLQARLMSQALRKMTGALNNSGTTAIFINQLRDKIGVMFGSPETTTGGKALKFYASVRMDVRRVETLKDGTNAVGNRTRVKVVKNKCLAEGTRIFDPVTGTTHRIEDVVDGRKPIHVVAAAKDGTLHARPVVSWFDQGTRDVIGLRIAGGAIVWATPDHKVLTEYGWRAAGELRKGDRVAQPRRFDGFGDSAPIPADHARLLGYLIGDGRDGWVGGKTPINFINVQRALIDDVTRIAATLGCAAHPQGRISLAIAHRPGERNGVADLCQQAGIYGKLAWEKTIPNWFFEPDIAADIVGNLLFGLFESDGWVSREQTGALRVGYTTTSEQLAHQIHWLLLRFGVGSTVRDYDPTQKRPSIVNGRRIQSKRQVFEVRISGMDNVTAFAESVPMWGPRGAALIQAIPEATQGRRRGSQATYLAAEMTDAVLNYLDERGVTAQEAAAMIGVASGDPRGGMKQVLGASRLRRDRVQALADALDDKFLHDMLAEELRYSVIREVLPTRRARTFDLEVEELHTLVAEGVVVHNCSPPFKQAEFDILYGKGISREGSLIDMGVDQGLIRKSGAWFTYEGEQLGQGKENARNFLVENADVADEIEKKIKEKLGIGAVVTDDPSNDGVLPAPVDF
# [14] = half-maximal inhibitory concentration for glucagon-like peptide-1 release, STC-1 cell line, dose-response (AID 1117345); type: functional, cell-based
# [15] = Glucagon-like peptide 1 release potency, NCI-H716 cell line, dose-response, half-maximal inhibitory concentration (AID 1117344); type: functional, cell-based
# [16] = target: Heat shock protein HSP 90-alpha (Homo sapiens, UniProt P07900); type: functional, organism-based
# [17] = target: T6, Replicative DNA helicase DnaB (Mycobacterium tuberculosis, UniProt P9WMR3); test: DnaB intein splicing inhibitors, dose response, biochemical, cell-free fluorescence (AID 449749); type: functional
# T6 sequence (P9WMR3 whole entry): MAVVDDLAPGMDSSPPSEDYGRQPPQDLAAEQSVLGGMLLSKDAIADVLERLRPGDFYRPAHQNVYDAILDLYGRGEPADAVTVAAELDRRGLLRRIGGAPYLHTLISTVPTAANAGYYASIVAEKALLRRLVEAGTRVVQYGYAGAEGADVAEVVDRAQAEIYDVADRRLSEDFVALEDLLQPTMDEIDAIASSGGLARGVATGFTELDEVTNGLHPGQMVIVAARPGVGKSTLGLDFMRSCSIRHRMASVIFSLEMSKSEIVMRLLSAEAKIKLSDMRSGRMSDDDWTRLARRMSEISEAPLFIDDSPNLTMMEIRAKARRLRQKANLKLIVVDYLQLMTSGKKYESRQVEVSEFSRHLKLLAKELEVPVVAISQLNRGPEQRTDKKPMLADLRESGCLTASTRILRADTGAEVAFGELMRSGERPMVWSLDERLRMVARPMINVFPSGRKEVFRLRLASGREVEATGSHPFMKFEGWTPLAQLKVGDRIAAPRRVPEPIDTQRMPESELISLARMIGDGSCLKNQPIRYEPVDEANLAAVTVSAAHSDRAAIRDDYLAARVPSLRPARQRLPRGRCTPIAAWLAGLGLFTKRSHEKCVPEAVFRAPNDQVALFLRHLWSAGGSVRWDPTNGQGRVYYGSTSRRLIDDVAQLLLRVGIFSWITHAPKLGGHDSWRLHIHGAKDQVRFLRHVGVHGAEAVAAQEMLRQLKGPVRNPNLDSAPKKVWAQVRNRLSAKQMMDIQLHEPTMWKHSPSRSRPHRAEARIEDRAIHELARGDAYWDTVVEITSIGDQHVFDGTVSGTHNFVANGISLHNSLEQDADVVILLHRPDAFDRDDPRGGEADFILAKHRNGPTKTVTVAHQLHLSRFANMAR
# [18] = cytotoxicity in KRAS-transformed pancreatic duct cells, primary screen, cell-based, fluorescence, HTS (AID 431); type: functional; details: Homo sapiens;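 note: cell line used: HPDE-C7K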
# Sequence of Tumor necrosis factor (P01375 whole entry, the tested form may be a part): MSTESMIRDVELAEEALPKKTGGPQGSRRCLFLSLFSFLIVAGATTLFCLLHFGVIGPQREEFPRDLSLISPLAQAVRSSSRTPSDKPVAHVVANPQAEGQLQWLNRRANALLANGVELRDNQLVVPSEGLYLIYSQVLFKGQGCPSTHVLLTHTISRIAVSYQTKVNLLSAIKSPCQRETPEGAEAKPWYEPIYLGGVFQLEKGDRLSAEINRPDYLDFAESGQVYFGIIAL
smiles,measurement,setting,value
Cc1ccc(O)c(N=Cc2cc(Cc3ccccc3)cc([N+](=O)[O-])c2O)c1,IC50,Tumor necrosis factor,> 20 µM (inactive)
same,IC50,[1],> 20 µM (inactive)
same,IC50,HEK293,> 20 µM (inactive)
same,IC50,[2],> 20 µM (inactive)
Cc1ccc(NC(=O)Nc2cccs2)c(Cl)c1,IC50,Bcl-2-like protein 10,> 100 µM (inactive)
CN1C=CC2=C(C#N)C(N)C(C#N)(C#N)C(c3ccccc3)C2C1 (stereo not drawn),IC50,[3],1.01 µM (active)
COc1ccc(OCC(=O)Nc2ccc3c(c2)C(=O)NC3=O)cc1,IC50,[4],> 43.8 µM (not active)
same,IC50,[5],> 43.8 µM (not active)
Cc1ccc(C(=O)N2CCCCC2)cc1S(=O)(=O)N1CCCCCC1,IC50,[4],> 43.8 µM (not active)
same,IC50,[5],> 43.8 µM (not active)
CCN(CCO)c1ncnc2c1sc1nc(CC(C)C)c3c(c12)CC(C)(C)OC3,Absolute IC50 (XBP1),X-box-binding protein 1,10 µM
same,EC50,[6],0.0454 µM (active)
CCCCCCCCCCCCCCCCOC[C@@H](COCC(F)(F)F)OP(=O)(O)OCO,AC50,Cytochrome P450 2C19,0.002 µM (inconclusive)
same,AC50,Cytochrome P450 2C9,39.8 µM (inconclusive)
Cc1cc(C)c(NC(=O)c2cc3c(nc4sccn43)s2)c(C)c1,IC50,Bcl-2-like protein 10,> 100 µM (inactive)
CCc1nnc(NC(=O)CSc2nnc(C3CCCCC3)n2-c2cccc(Cl)c2)s1,EC50,[7],> 120 µM (not active)
same,EC50,[8],> 120 µM (not active)
same,EC50,[9],7.01 µM (active)
same,EC50,[10],> 120 µM (not active)
COc1ccc(Oc2c(/C=N/O)cnn(-c3ccc(C(C)C)cc3)c2=O)cc1,IC50,[11],> 20 µM (inactive)
Clc1ccc(CSC(Cn2ccnc2)c2ccc(Cl)cc2Cl)cc1 (stereo not drawn) [SULCONAZOLE NITRATE],EC50,[12],60.3 µM (not active)
same,EC50,[13],7.1 µM (active)
same,EC50,Protein RecA,9.78 µM (active)
same,IC50,[14],> 40 µM (inactive)
same,IC50,[15],21 µM (inactive)
same,AC50,[16],0.294 µM (active)
same,AC50,[17],3.52 µM (active)
same,EC50,[18],8.21 µM (active)
